As usually defined, the Kd is the constant that tells how readily two partners part at equilibrium.

The source made the active and inactive calls. No rule for the calls is given here.

Sequence of Ubiquitin-conjugating enzyme E2 N (Homo sapiens) (P61088 whole entry, looked up): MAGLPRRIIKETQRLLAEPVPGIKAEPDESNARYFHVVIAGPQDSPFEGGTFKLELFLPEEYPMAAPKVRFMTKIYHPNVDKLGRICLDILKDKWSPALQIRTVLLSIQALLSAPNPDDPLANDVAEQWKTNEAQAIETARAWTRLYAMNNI

This experiment has as its target Ubiquitin-conjugating enzyme E2 N (Homo sapiens) (UniProt P61088). Kind of experiment: NMR detection of UBE2N ligand binding – biophysical, purified protein (AID 1552). Particulars: NMR binding to purified UBE2N.
Take `C[C@@H]1CC[C@]2(C(=O)O)CC[C@]3(C)C(=CCC4[C@@]5(C)CC[C@H](O)C(C)(C)C5CC[C@]43C)C2[C@H]1C` (stereo partly drawn): the Kd was > 4 mM (inactive).

Consider `Cc1c(C(=O)OC(C)C)[nH]c2c1C(=O)CCC2`, for which the Kd was > 4 mM (inactive).

For `CC(C)(C)NC(=O)CN1C(=O)c2ccccc2S1(=O)=O`, the Kd is > 4 mM (inactive).

For the compound `CN(C)C(=O)N1CCN(C(=O)c2ccco2)CC1`, the Kd was > 4 mM (inactive).

In the case of `CCOC(=O)C1=C(O)CCN(C)C1`, the Kd was > 4 mM (inactive).

As for `COc1cc(OC)c2c(OC)c(-c3ccc4c(c3)OCO4)c(=O)oc2c1`, the Kd was > 4 mM (inactive).

For the compound `COc1cc2c(cc1OC)C(C)NCC2` (stereo not drawn), the Kd was > 4 mM (inactive).

As to `O=C(O)c1cc(=O)c2cccc(O)c2[nH]1`, the Kd is > 4 mM (inactive).

In the case of `CC12CN([N+](=O)[O-])C3(C(N)=O)CC1CCC23C` (stereo not drawn), the Kd is > 4 mM (inactive).

In the case of `O=c1c(-c2ccccc2)coc2cc(O)cc(O)c12`, the Kd is > 4 mM (inactive).

Consider `O=C(/C=C/c1ccccc1)c1ccc(O)cc1`, for which the Kd is > 4 mM (inactive).

As for `CC1=C/C(=C\c2c(O)[nH]c(=O)[nH]c2=O)C(C)=N1`, the Kd is > 4 mM (inactive).

For the compound `Cc1nnc(N2CCN(Cc3ccccc3)CC2)[nH]c1=O`, the Kd was > 4 mM (inactive).

Regarding `CC(=O)c1c(C)nc(-c2ccc(Cl)cc2Cl)n1O`, the Kd is > 4 mM (inactive).

With `Nc1ncccc1OCc1ccccc1`, the Kd is > 4 mM (inactive).

`COc1cc(OC)c(-c2nc3cnccc3n2C)cc1OC`: the Kd is > 4 mM (inactive).

Regarding `Cc1cc(NC(=O)CCCn2cnc([N+](=O)[O-])n2)no1`, the Kd is > 4 mM (inactive).

In the case of `O=c1ccn(Cc2ccccc2)c(=O)n1Cc1ccccc1`, the Kd was > 4 mM (inactive).

On to `Nc1c2c3c(sc2nc(=O)n1N)CCCC3`, for which the Kd was > 4 mM (inactive).

Take `CN(Cc1nc2ccccc2n1C)S(C)(=O)=O`: the Kd was > 4 mM (inactive).

With `CC1(C(=O)O)CC2C=CC1C2` (stereo not drawn), the Kd is > 4 mM (inactive).

As to `CC(=O)NN1C(=O)/C(=C\c2ccc(O)cc2)SC1=S`, the Kd is > 4 mM (inactive).

In the case of `Cc1nccc2c1[nH]c1ccccc12`, the Kd was > 4 mM (inactive).

Consider `O=C(Nc1cnccn1)c1cccc(C(F)(F)F)c1`, for which the Kd is > 4 mM (inactive).

For `CC(=O)OCC(=O)[C@@]1(O)CCC2C3CC[C@@H]4C[C@H](O)CC[C@]4(C)C3C(=O)C[C@@]21C` (stereo partly drawn), the Kd is > 4 mM (inactive).

For the compound `CC(C)CC(=O)NC1CCSC1=O` (stereo not drawn), the Kd is > 4 mM (inactive).

As for `CC(=O)Nc1cccc(-c2nnc(-c3ccccc3)o2)c1`, the Kd is > 4 mM (inactive).

For `COc1cc2c(cc1OC)C1(O)C(=O)c3ccc(O)c(C(=O)O)c3OC1CO2` (stereo not drawn), the Kd was > 4 mM (inactive).

As to `Cc1cc(NC(=O)c2cc(C)on2)no1`, the Kd was > 4 mM (inactive).

For the compound `COc1ccc2cc1Oc1ccc(cc1)C[C@H]1c3c(cc4c(c3Oc3cc5c(cc3OC)CCN(C)[C@@H]5C2)OCO4)CCN1C`, the Kd was > 4 mM (inactive).

`O=c1ccc2ccccc2o1`: the Kd was > 4 mM (inactive).

For `CNC(C)[C@H](O)c1ccccc1` (stereo partly drawn), the Kd was > 4 mM (inactive).

As for `CC(C)(O)CC[C@@H](O)[C@](C)(O)C1CC[C@@]2(O)C3=CC(=O)C4C[C@@H](O)[C@@H](O)C[C@]4(C)C3CC[C@]12C` (stereo partly drawn), the Kd is > 4 mM (inactive).

Take `O=c1c(O)c(-c2ccc(O)c(O)c2)oc2cc(O)ccc12`: the Kd is > 4 mM (inactive).

On to `Cc1nnsc1C(=O)Nc1ccccn1`, for which the Kd was > 4 mM (inactive).

`CCOC(=O)Cc1nc2ccccc2[nH]1`: the Kd is > 4 mM (inactive).

Turning to `CCOC(=O)c1c(C)cc(O)c(C=O)c1O`, the Kd is > 4 mM (inactive).

Regarding `C/C=C/COc1nc2c(c(=O)n(C)c(=O)n2C)n1C`, the Kd is > 4 mM (inactive).

As to `COc1ccc2[nH]c(O)c(NC(C)=O)c2c1`, the Kd was > 4 mM (inactive).

Take `CCOC(=O)CN1C(=O)c2ccccc2C1=O`: the Kd is > 4 mM (inactive).

Regarding `CC(C)C(C)/C=C/C(C)C1CCC2C3=CC=C4CC(O)CCC4(C)C3CCC21C` (stereo not drawn), the Kd was > 4 mM (inactive).

As to `O=C1CCCc2c1nc(-c1ccccc1)n2O`, the Kd is > 4 mM (inactive).

Turning to `O=C(NCc1cccs1)c1nc2ncccn2n1`, the Kd was > 4 mM (inactive).

As for `Cc1c(CO)cnn1-c1ccccc1`, the Kd is > 4 mM (inactive).

Turning to `O=C1CCCC(=O)N1Cc1ccco1`, the Kd was > 4 mM (inactive).

As to `COc1cc2c3cc1Oc1cc(ccc1O)C[C@@H]1c4c(cc(OC)c(O)c4Oc4ccc(cc4)C[C@@H]3N(C)CC2)CC[N+]1(C)C`, the Kd was > 4 mM (inactive).

For `CSc1n[nH]c(NCc2ccccc2)n1`, the Kd is > 4 mM (inactive).

Turning to `NC(=O)c1ccsc1NC(=O)c1cccnc1`, the Kd is > 4 mM (inactive).

Turning to `Cc1c(C)[n+]([O-])c(-c2ccc([N+](=O)[O-])cc2)n1O`, the Kd is > 4 mM (inactive).

For the compound `O=c1/c(=C/c2ccccc2F)sc2ncnn12`, the Kd was > 4 mM (inactive).

Turning to `COc1ccc2[nH]cc(CCN(C)C)c2c1`, the Kd was > 4 mM (inactive).

As for `CN(C)/C=N/S(=O)(=O)c1ccccc1`, the Kd was > 4 mM (inactive).

With `CN(C(N)=O)C1(C)CCS(=O)(=O)C1` (stereo not drawn), the Kd is > 4 mM (inactive).

On to `CN(C)c1ccc(NC(=O)CC(C(=O)O)N(C)C)cc1` (stereo not drawn), for which the Kd was > 4 mM (inactive).

`O=C(NCc1ccco1)c1cccc(F)c1`: the Kd was > 4 mM (inactive).

Take `Cn1c(CNc2ccccc2)cc(=O)n(C)c1=O`: the Kd is > 4 mM (inactive).

With `COC(=O)C[C@H]1C2(C)CC34OC5(C)O[C@@]6([C@H](OC)C(OC(=O)C(C)C)[C@]7(C)C(/C(=C(/OC)C(C)C)C(=O)O[C@H]7c7ccoc7)[C@@]6(O5)[C@H](OC)[C@@]3(OC)C2OC(C)=O)[C@]14C` (stereo partly drawn), the Kd is > 4 mM (inactive).

Consider `CC(=O)n1nc(-c2cccnc2)nc1N`, for which the Kd was > 4 mM (inactive).

In the case of `CC(=O)Nc1c(Cl)cnn(-c2ccccc2)c1=O`, the Kd is > 4 mM (inactive).

In the case of `Cc1ccc(-n2nnnc2SCC(N)=O)c(C)c1`, the Kd is > 4 mM (inactive).

For the compound `O=C(O)CN1C(=O)c2cccc([N+](=O)[O-])c2C1=O`, the Kd was > 4 mM (inactive).

Take `Cc1nn2c(=O)/c(=C/c3cccc(F)c3)sc2nc1=O`: the Kd is > 4 mM (inactive).

For `CC1=CC2C(C(C)C)CCC(C)(O)C2CC1` (stereo not drawn), the Kd is > 4 mM (inactive).

Take `Cn1cnnc1SCC(=O)Nc1ccccc1`: the Kd is > 4 mM (inactive).

On to `O=C1NC(=S)NC(=O)C1=Cc1ccncc1`, for which the Kd is > 4 mM (inactive).

As for `Cn1[nH]c2nc3[nH]n(C)c(=O)c3c(-c3ccccc3)c2c1=O`, the Kd was > 4 mM (inactive).

Consider `CC(C)CCCC(C)C1CCC2C3C[C@@H](O)[C@@]4(O)C[C@@H](O)CC[C@]4(C)C3CC[C@]12C` (stereo partly drawn), for which the Kd is > 4 mM (inactive).

As for `CC(=O)NS(=O)(=O)c1ccc(C)cc1`, the Kd was > 4 mM (inactive).

Regarding `Cc1c(C(=O)Nn2cnnc2)oc2ccccc12`, the Kd is > 4 mM (inactive).

As for `CCOC(=O)c1cc(C)n(C)n1`, the Kd was > 4 mM (inactive).

Regarding `N#CCCn1ccnc1-c1ccccc1`, the Kd was > 4 mM (inactive).

On to `CNC(=O)C(=O)Nc1c(C)cccc1C`, for which the Kd is > 4 mM (inactive).

For `C#CCCCCCCCCCCCc1ccco1`, the Kd is > 4 mM (inactive).

For the compound `CN1C(CC(=O)c2ccccc2)CCCC1CC(O)c1ccccc1` (stereo not drawn), the Kd is > 4 mM (inactive).

Take `NC(=O)c1ccccc1NC(=O)c1cccnc1`: the Kd is > 4 mM (inactive).

On to `CN1CCN(CC(=O)NC2CCCCC2)CC1`, for which the Kd is > 4 mM (inactive).

In the case of `O=C(NN1CCOCC1)c1cccs1`, the Kd is > 4 mM (inactive).

Take `O=c1cc(-c2ccccc2)oc2cc(O)cc(O)c12`: the Kd was > 4 mM (inactive).

Turning to `Cc1cc(C)n(-c2ccc(N)cc2)n1`, the Kd is > 4 mM (inactive).

For `Cn1nnc2cc(C(=O)N3CCSCC3)ccc21`, the Kd is > 4 mM (inactive).

For `COC(=O)c1ccccc1N(C)S(C)(=O)=O`, the Kd was > 4 mM (inactive).

Turning to `C=C1C2CC[C@@]3(C)[C@H](c4ccoc4)OC(=O)C[C@]13O[C@H]1CC(=O)C(C)(C)[C@H](C(O)C(=O)OC)[C@@]21C` (stereo partly drawn), the Kd was > 4 mM (inactive).

Regarding `Cc1sc2nc(SC3CCOC3=O)[nH]c(=O)c2c1C` (stereo not drawn), the Kd was > 4 mM (inactive).

As to `O=C(c1cc2ccccc2o1)N1CCCCCC1`, the Kd was > 4 mM (inactive).

On to `Cc1nc(N)sc1C(=O)N/N=C/c1ccncc1`, for which the Kd was > 4 mM (inactive).

As for `Cc1nn(C)c(Cl)c1C(O)c1c(C)nn(C)c1Cl`, the Kd is > 4 mM (inactive).

On to `CS(=O)(=O)c1nncn1-c1ccccc1`, for which the Kd was > 4 mM (inactive).

In the case of `Cc1noc(C)c1C(=O)Nc1cccnc1`, the Kd was > 4 mM (inactive).

For the compound `CCc1c(C)[nH]c(=S)c(C(N)=O)c1C`, the Kd is > 4 mM (inactive).

Consider `O=C(O)Cn1cnc2ccccc2c1=O`, for which the Kd is > 4 mM (inactive).

For the compound `CC(=O)c1cc(C)ccc1OC(=O)c1cccnc1`, the Kd was > 4 mM (inactive).

`O=[n+]1c2c(n([O-])c3ccccc31)CCCC2`: the Kd is > 4 mM (inactive).

In the case of `Cc1ccc2cc(C(=O)O)ccc2n1`, the Kd was > 4 mM (inactive).

As to `NC(=O)c1ccc(Cl)c(N2C(=O)CCC2=O)c1`, the Kd was > 4 mM (inactive).

Regarding `CC(=O)OC1CCC2(O)CC1(C)CCC1C2CC1(C)C` (stereo not drawn), the Kd was > 4 mM (inactive).

Turning to `CC(=O)O[C@@H]1CC2C(C)(C)[C@H](O)CC[C@]2(C)C2CC[C@@]3(C)[C@H](c4ccoc4)OC(=O)C4OC43[C@@]21C` (stereo partly drawn), the Kd was > 4 mM (inactive).

Turning to `Cc1cc(C)cc(OC(=O)N2CCOCC2)c1`, the Kd is > 4 mM (inactive).

For `Oc1cnc2ccccc2c1CN1CCOCC1`, the Kd is > 4 mM (inactive).

The record behind these values is PubChem BioAssay AID1552 (Sanford-Burnham Center for Chemical Genomics, 2009).
